# Patent US20170336420A1, “METHODS AND KITS FOR TREATING CARDIOVASCULAR DISEASES” (RAPPAPORT FAMILY INSTITUTE FOR RESEARCH IN THE MEDICAL …, priority 2014, published 2017)
# Read-outs that look alike come from different tables or passages of the source.
# Legend:
# [1] = a little more than a year of treatment; cited from earlier work
# [2] = patients who had a recent acute coronary syndrome; cited from earlier work
# [3] = tested on: AIM HIGH participants; assay: AIM-HIGH randomized double blind clinical trial, primary composite endpoint of CVD events, also segregated by Hp type; assay type: in vivo, human; conditions: DM participants
# Description: AIM-HIGH (clinicaltrials.gov NCT00120289) was a randomized double blind clinical trial which set out to test the HDL hypothesis—that raising HDL would reduce CVD events. This hypothesis was based on epidemiological data showing that individuals with higher HDL had lower CVD. AIM-HIGH set out to raise HDL via the drug niacin. […] All participants received simvastatin. The primary endpoint was the first event of the composite of death from coronary heart disease, nonfatal myocardial infarction, ischemic stroke, hospitalization for an acute coronary syndrome, or symptom driven coronary or cerebral revascularization.
# Hp typing was performed by the inventors using polyacrylamide gel electrophoresis. Data on Hp typing was returned to the AIM HIGH coordinating center which provided the event rates in these participants segregated by Hp type and treatment (monotherapy with statins only or combination therapy with statins plus niacin).
# [4] = tested on: AIM HIGH participants; conditions: cited from earlier work
# [5] = for HDL Y1 (mean) / LDL Y1 (mean) / TG Y1 (mean): year 1
# Description: AIM-HIGH (clinicaltrials.gov NCT00120289) was a randomized double blind clinical trial which set out to test the HDL hypothesis—that raising HDL would reduce CVD events. This hypothesis was based on epidemiological data showing that individuals with higher HDL had lower CVD. AIM-HIGH set out to raise HDL via the drug niacin. The 3414 participants in AIM HIGH were randomly assigned to receive extended release niacin […] vs placebo. All participants received simvastatin. The primary endpoint was the first event of the composite of death from coronary heart disease, nonfatal myocardial infarction, ischemic stroke, hospitalization for an acute coronary syndrome, or symptom driven coronary or cerebral revascularization.
# 70 Hp 1-1 and 70 Hp 2-2 DM AIM HIGH participants, with half in the niacin and half in the placebo group, were randomly selected by the AIM HIGH coordinating center for analysis for HDL metrics at baseline and one year into the study.
# [6] = tested on: Murine macrophage J774 cells; conditions: Hp 1-1 group, baseline vs 1 year on niacin
# Method: Serum induced reverse cholesterol transport function and HDL antioxidant function were measured in 70 Hp 1-1 and 70 Hp 2-2 participants from the AIM HIGH study at baseline and at one year after randomization to placebo or niacin.
# This AIM HIGH substudy was approved by the AIM HIGH steering committee and was designed to investigate whether the Hp phenotype influenced HDL functional metrics in DM participants in AIM HIGH. All 1140 DM participants in AIM HIGH were subjected to Hp phenotyping. Functional HDL metrics (RCT and antioxidant function) was evaluated at baseline and at one year of treatment in 70 Hp 1-1 and 70 Hp 2-2 DM individuals with half in the niacin and half in the placebo group. In 20 Hp 1-1 and 20 Hp 2-2 DM individuals the amount of Hb associated with the HDL at baseline was measured. […]
# Measurement of HDL efflux capacity was performed as previously described. […] Liquid scintillation counting was then determined in 500 μl of the medium collected from each well as well as in the cells after washing the cells twice with PBS and lysing them in 0.1 N NaOH. Cholesterol efflux capacity was determined as the percentage efflux of total counts per minute in the medium divided by the total counts per minute in the medium and in the cells and after subtraction of the nonspecific efflux obtained in cells incubated in the absence of serum.
# [7] = tested on: HDL
# Method: (§1) This AIM HIGH substudy was approved by the AIM HIGH steering committee and was designed to investigate whether the Hp phenotype influenced HDL functional metrics in DM participants in AIM HIGH. All 1140 DM participants in AIM HIGH were subjected to Hp phenotyping. Functional HDL metrics (RCT and antioxidant function) was evaluated at baseline and at one year of treatment in 70 Hp 1-1 and 70 Hp 2-2 DM individuals with half in the niacin and half in the placebo group. In 20 Hp 1-1 and 20 Hp 2-2 DM individuals the amount of Hb associated with the HDL at baseline was measured. Individuals performing all functional assays were blinded to treatment assignment of all samples used for this study.
# (§2) The amount of total oxidation and HDL anti-oxidant function were assessed in apolipoprotein (apo)-B depleted serum using the fluorescent and oxidation-sensitive agent dihydrorhodamine 123 (DHR). Apo-B depleted serum was prepared using polyethylene glycol (PEG) as previously described in Asztalos BF, de la Llera-Moya M, Dallal G E, Horvath K V, Schaefer E J, Rothblat G H. Differential effects of HDL subpopulations on cellular ABCA1- and SR-BI-mediated cholesterol efflux. J Lipid Res. 2005; 46:2246-2253
# (§3) Briefly-serum samples were treated with PEG solution to precipitate apoB-containing lipoproteins by adding 40 parts PEG solution (20% PEG in 200 mM glycine buffer, pH 7.4) to 100 parts serum. After a 20 min incubation, the precipitate was removed by high-speed centrifugation (10,000 rpm, 30 min, 4° C.) to obtain the PEG supernatant containing the HDL lipoprotein fraction.
# (§4) Duplicates of 20 μl of apo-B-depleted serum were transferred to clear-bottom 96-well plates, and 180 μl of iron-free Hepes-buffered saline (HBS) containing 50 μM DHR was then added. Immediately after the addition of DHR, the kinetics of fluorescence increase was followed in a BMG Galaxy Fluostar microplate reader at 37° C. with a 485/538 nm excitation/emission filter pair with repeated readings every 2 minutes up to 40 minutes. Total oxidation was calculated as the rate of DHR oxidation (fluorescent units (FU)/min) for each duplicate after subtracting the rate of DHR oxidation observed using the same conditions but in the absence of serum.
# HDL anti-oxidation function represents a fraction of the total oxidation prevented by HDL (in which case HDL is behaving as an antioxidant) or provoked by HDL (in which case HDL is behaving as a pro-oxidant) within each sample. To calculate HDL anti-oxidant function, HDL was depleted by immunoprecipitation from apo-B-depleted serum using anti-human apoA1 antibody and protein A/G Sepharose, before duplicates of corrected volumes of remnant apo-B- and Apo-A-depleted serum were transferred to 96-well plates and the rate of DHR oxidation measured in the identical manner and in parallel with the measurement of total oxidation as described above.
# [8] = tested on: ApoB depleted serum
# Method: as §1, §2, §3, §4
# [9] = all participants; increased from mean of 35 mg/dl; cited from earlier work
# [10] = tested on: HDL; conditions: Hp 2-2 DM individuals; three independent studies; cited from earlier work
# [11] = Hp 2-2 genotype individuals with diabetes mellitus; cited from earlier work
# [12] = Hp 1-1 niacin group, at one year vs baseline
# [13] = Hp 2-2 niacin group, at one year vs baseline
compound,measurement,setting,value
"CC(C)c1c(C(=O)Nc2ccccc2)c(-c2ccccc2)c(-c2ccc(F)cc2)n1CC[C@@H](O)C[C@@H](O)CC(=O)O [Atorvastatin®, Atorvastatin]",deaths,[1],51
"CCC(CC)CC1(C(=O)Nc2ccccc2SC(=O)C(C)C)CCCCC1 [Dalcetrapib®, S-[2-({[1-(2-ethylbutyl)cyclohexyl]carbonyl}amino)phenyl] 2-methylpropanethioate]",HDL cholesterol levels (in words),[2],increase HDL cholesterol levels
same,risk of recurrent cardiovascular events (in words),[2],did not reduce the risk of recurrent cardiovascular events
CCC(C)(C)C(=O)O[C@H]1C[C@@H](C)C=C2C=C[C@H](C)[C@H](CC[C@@H]3C[C@@H](O)CC(=O)O3)[C@H]21 [Simvastatin],"% Primary Event, % of N in this category",[3]; HP1-1,(24.0%)
same,Event Rate,[3]; HP1-1,0.0803
same,N Primary Event,[3]; HP1-1,23
same,"% Primary Event, % of N in this category",[3]; HP2-1,(17.9%)
same,Event Rate,[3]; HP2-1,0.0582
same,N Primary Event,[3]; HP2-1,46
same,"% Primary Event, % of N in this category",[3]; HP2-2,(16.3%)
same,Event Rate,[3]; HP2-2,0.0532
same,N Primary Event,[3]; HP2-2,33
"O=C(O)c1cccnc1 [niacin, pyridine-3-carboxylic acid]",primary endpoint occurred in patients,"[4]; all 3414 participants, extended release niacin 1500-2000 g/day, all received simvastatin, mean follow up 3 years",282 patients
same,"primary endpoint, % of group","[4]; all participants, niacin group, all received simvastatin, mean follow up 3 years",16.4%
same,HR for primary endpoint,"[4]; niacin group vs placebo group, all participants",1.02
same,HDL Y1 (mean),"[5]; Hp 11 niacin group, HDL base 33.91",40.94
same,LDL Y1 (mean),"[5]; Hp 11 niacin group, LDL base 81.18",67.71
same,TG Y1 (mean),"[5]; Hp 11 niacin group, TG base 193.12",174.97
same,HDL Y1 (mean),"[5]; Hp 22 niacin group, HDL base 33.74",43.29
same,LDL Y1 (mean),"[5]; Hp 22 niacin group, LDL base 65.91",64.15
same,TG Y1 (mean),"[5]; Hp 22 niacin group, TG base 211.88",164.50
same,HDL mass (in words),[5]; both Hp 1-1 and Hp 2-2 DM individuals,significant increase in HDL mass
same,increase in median efflux,[6],14%
same,change in HDL antioxidant function (in words),[7]; Hp 1-1 individuals,improved
same,change in HDL antioxidant function (in words),"[7]; Hp 1-1 individuals, listed as Niacin",increase in HDL antioxidant function
same,HDL antioxidant function increased by,[7]; [12],10.8±2.3 units
same,change in HDL antioxidant function (in words),[7]; Hp 2-2 individuals,worsened
same,change in HDL antioxidant function (in words),"[7]; Hp 2-2 individuals, listed as Niacin",significant decline in the antioxidant function
same,HDL antioxidant function decreased by,[7]; [13],8.3±2.9 units
same,change in total oxidation (in words),[8]; Hp 1-1 individuals,significant decrease
same,total oxidation decreased by,[8]; [12],19.1±3.4 oxidation units
same,change in total oxidation (in words),[8]; Hp 2-2 individuals,significant increase in total oxidation
same,total oxidation increased by,[8]; [13],13.4±5.0 oxidation units
same,"HDL, mean on treatment",[9],42 mg/dL
vitamin E,RCT function (in words),[10],restore and significantly improve RCT function
same,risk for cardiovascular diseases (in words),[11],reduces the risk for cardiovascular diseases
